Like-named read-outs stand apart in the source and are kept apart here.
Experiments:
hTG2 = target: T1, hTG2 (Homo sapiens, UniProt P21980); assay: biochemical; conditions: for inactivation of TG2: isozyme selectivity, normalized [I]/α; for Ki: read-out: KI (converted)
T1 sequence (P21980 1-687): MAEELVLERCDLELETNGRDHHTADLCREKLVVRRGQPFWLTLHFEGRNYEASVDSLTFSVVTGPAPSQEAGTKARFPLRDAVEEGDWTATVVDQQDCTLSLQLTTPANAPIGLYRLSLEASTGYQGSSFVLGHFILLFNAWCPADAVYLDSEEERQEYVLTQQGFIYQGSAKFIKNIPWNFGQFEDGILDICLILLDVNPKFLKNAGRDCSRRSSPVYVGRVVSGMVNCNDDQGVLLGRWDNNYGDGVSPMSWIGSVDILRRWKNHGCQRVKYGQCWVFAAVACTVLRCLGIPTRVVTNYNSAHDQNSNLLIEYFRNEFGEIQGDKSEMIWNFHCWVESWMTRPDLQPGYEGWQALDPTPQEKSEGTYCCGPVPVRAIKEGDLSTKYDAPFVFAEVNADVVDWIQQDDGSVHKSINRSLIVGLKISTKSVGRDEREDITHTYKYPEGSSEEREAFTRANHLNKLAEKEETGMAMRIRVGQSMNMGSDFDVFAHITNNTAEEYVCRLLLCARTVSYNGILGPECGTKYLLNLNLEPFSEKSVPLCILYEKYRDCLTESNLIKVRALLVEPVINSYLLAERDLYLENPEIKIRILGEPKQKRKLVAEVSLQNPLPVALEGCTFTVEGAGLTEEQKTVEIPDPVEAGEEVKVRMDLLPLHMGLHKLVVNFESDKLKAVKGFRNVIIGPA

hTG1 = target: T2, hTG1 (Homo sapiens, UniProt P22735); assay: Colorimetric transamidase activity assay, isozyme selectivity; type: biochemical; conditions: normalized [I]/α
T2 sequence (P22735 1-817): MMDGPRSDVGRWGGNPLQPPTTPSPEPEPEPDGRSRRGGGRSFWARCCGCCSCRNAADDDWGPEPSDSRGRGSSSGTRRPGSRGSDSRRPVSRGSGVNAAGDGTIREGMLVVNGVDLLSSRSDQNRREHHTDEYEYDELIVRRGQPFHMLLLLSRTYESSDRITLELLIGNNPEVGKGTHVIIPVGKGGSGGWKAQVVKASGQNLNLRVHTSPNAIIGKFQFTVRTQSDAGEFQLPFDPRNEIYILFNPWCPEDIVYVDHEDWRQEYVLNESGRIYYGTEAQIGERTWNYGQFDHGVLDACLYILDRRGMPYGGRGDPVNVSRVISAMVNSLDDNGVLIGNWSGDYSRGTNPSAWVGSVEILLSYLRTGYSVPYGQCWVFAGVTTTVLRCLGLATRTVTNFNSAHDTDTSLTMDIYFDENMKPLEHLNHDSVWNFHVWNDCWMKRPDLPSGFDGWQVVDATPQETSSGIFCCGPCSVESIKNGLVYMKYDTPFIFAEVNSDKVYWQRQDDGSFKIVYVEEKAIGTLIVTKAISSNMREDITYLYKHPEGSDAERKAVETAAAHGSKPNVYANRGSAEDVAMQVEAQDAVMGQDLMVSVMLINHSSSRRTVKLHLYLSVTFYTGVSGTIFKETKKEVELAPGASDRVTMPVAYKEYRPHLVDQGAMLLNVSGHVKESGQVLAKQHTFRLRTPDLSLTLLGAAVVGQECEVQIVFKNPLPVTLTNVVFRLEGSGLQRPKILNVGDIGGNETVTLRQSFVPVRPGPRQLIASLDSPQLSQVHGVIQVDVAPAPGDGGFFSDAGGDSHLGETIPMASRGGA
Method: Colorimetric transamidase activity assay. The activities of hTG1, hTG2 and hTG6 were measured via a colorimetric assay using the chromogenic substrate Cbz-Glu(γ-p-nitrophenyl ester)Gly (AL5), as described (Leblanc, A. et al., “Kinetic studies of guinea pig liver transglutaminase reveal a general-base-catalyzed deacylation mechanism.” Biochemistry 2001, 40 (28), 8335-8342). Assays were conducted at 25° C. in 50 mM MOPS buffer (pH 6.95) containing 7.5 mM CaCl2. […] Stock solutions of the inhibitors were made in water ranging in concentration from 100-500 μM. The reaction was initiated with the addition of enzyme, 0.10 μM hTG1, 0.25 μM hTG2 (4.6 mU/mL) or 0.32 μM hTG6. Formation of hydrolysis product, p-nitrophenolate (pNP), was monitored at 405 nm in a polystyrene 96-well microplate using a BioTek Synergy 4 plate reader. The observed first-order rate constants of inactivation (kobs) were determined via non-linear regression fit to a mono-exponential model (Eqn 1) of absorbance versus time curves. These rate constants (kobs) were in turn fit to a saturation kinetics model (Eqn 2), by non-linear regression, providing the kinetic parameters kinact and KI, as previously described by Stone and Hofsteenge (Stone, S. R. and Hofsteenge, J., “Specificity of activated human protein C.” Biochem. J. 1985, 230 (2), 497-502). […] Experiments were completed in triplicate at minimum.

[1] = fit to saturation kinetics model, 25° C., pH 6.95, 100 μM AL5

C=CC(=O)NCCCC[C@H](NC(=O)OCc1ccccc1)C(=O)N1CCN(C(=O)c2cccc3ccccc23)CC1 [AA9, reference compound]
inactivation of TG2 (hTG2): inactivated TG2 almost completely, in less than five minutes
kinact/KI (hTG2; pH 6.95): 4070 M⁻¹ s⁻¹
inhibition of TG1 (hTG1): none of these inhibitors showed any detectable inhibition

C=CC(=O)NCCCC[C@H](NC(=O)Cc1ccccc1C)C(=O)N1CCN(C(=O)c2cccc3ccccc23)CC1 [Inhibitor 74, (S)-N-(6-(4-(1-naphthoyl)piperazin-1-yl)-5-(2-(2-methylphenyl)acetamido)-6-oxohexyl)acrylamide]
Ki (hTG2; [1]): 6.1 ± 1.8 µM
kinact (hTG2; fit to saturation kinetics model, 25° C., pH 6.95, 100 μM AL5, read-out: kinact (converted)): 0.035 s⁻¹
kinact/KI (hTG2; fit to saturation kinetics model, 25° C., pH 6.95, 100 μM AL5, read-out: kinact/KI (converted)): 5870 M⁻¹ s⁻¹
inactivation of TG2 (hTG2): inactivated TG2 almost completely, in less than five minutes
inhibition of TG1 (hTG1): none of these inhibitors showed any detectable inhibition

C=CC(=O)NCCCC[C@H](NC(=O)Cc1ccccc1F)C(=O)N1CCN(C(=O)c2cccc3ccccc23)CC1 [Inhibitor 72, (S)-N-(6-(4-(1-naphthoyl)piperazin-1-yl)-5-(2-(2-fluorophenyl)acetamido)-6-oxohexyl)acrylamide]
Ki (hTG2; [1]): 1 ± 0.2 µM
inactivation of TG2 (hTG2): inactivated TG2 almost completely, in less than five minutes
inhibition of TG1 (hTG1): none of these inhibitors showed any detectable inhibition
